Patent US4576945A, “Hexaalkylmelamine-amino-oxy compounds” (priority 1984, dated 1986)
≈ marks a conversion by molar mass, not a printed value. Read-outs that look alike come from different tables or passages of the source.

What was measured:
A-204 rhabdomysarcoma = assay: Inhibition of colony formation by human tumor cell line A-204 (rhabdomysarcoma), long-term exposure; assay type: cell-based; settings: 9 days
Experimental: (§1) Cytotoxic activity of O-HMM against in vitro human tumor cells was measured as inhibition of colony formation and the results expressed as a ratio of the number of colonies in test dishes to number of control dishes, times 100 (Table 4).
(§2) Inhibition of colony formation by human tumor
(§3) ^a Percent survival as measured by the number of colonies in test

A-498 renal carcinoma = assay: Inhibition of colony formation by human tumor cell line A-498 (renal carcinoma), long-term exposure; assay type: cell-based; settings: 9 days
Experimental: as §1, §2, §3

A-101D melanoma = assay: Inhibition of colony formation by human tumor cell line A-101D (melanoma), long-term exposure; assay type: cell-based; settings: 9 days
Experimental: as §1, §2, §3

A-549 lung carcinoma = assay: Inhibition of colony formation by human tumor cell line A-549 (lung carcinoma), long-term exposure; assay type: cell-based; settings: 9 days
Experimental: as §1, §2, §3

[1] = Solubility in lipid and aqueous media; assay type: physicochemical
[2] = Rearrangement of O-HMM to HDT (chemical stability); assay type: physicochemical; settings: for degraded at 4 h / degraded at 24 h / degraded at 26 h / degraded at 20 h: read-out: HDT (formed by rearrangement, determined by NMR); for remaining at 4 h / remaining at 24 h / remaining at 26 h / remaining at 20 h: read-out: HMM--NO (remaining, determined by NMR); for degraded at 24 h / remaining at 24 h: h2o; for degraded at 20 h / remaining at 20 h: 135° C. sealed tube
Excerpt: Solvent Temp. Time HMM--NO HDT
^a Yields determined by NMR
^b Sealed tube reaction. Solutions degassed with argon and then seale
^d 0.1 equiv. mchlorobenzoic acid
^e 0.1 equiv. pnitrobenzoic acid
^f 0.05 M HOAc/NaOAc pH 5

rats = assay: Acute toxic effects after intraperitoneal administration in rats; assay type: in vivo, Male Harlen-Sprague-Dawley rats; settings: rat; 20 mg/kg intraperitoneal
Experimental: Male Harlen-Sprague-Dawley rats, 200-300 g were given 20 mg/kg of O-HMM by intraperitoneal injection (control rats received saline vehicle only) and their urine collected for two consecutive 24 hr. periods.

male BDF1 mice = assay: Toxicity study (LD50 study) in mice; assay type: in vivo; settings: IP
Experimental: These effects diminished over a period of about 3-5 hours until the animal appeared normal and resumed activity.

[3] = tested on: A-549 lung carcinoma, A-101D melanoma, A-498 renal carcinoma and A-204 rhabdomysarcoma; assay: Comparison of O-HMM with HMM in the human tumor colony formation test systems; assay type: cell-based; settings: vs HMM; all four cell lines
Experimental: as §1

[4] = h2o/h+ (0.05 m hoac/naoac), pH 5, H2O/H+ (0.05 M HOAc/NaOAc pH 5), 25° C.
[5] = h2o/h+ (0.05 m hoac/naoac), pH 5, H2O/H+ (0.05 M HOAc/NaOAc pH 5), 50° C.
[6] = hccl3/h+ (m-chlorobenzoic acid), HCCl3/H+ (0.1 equiv. m-chlorobenzoic acid), 25° C.
[7] = hccl3/h+ (m-chlorobenzoic acid), HCCl3/H+ (0.1 equiv. m-chlorobenzoic acid), 50° C.
[8] = hccl3/h+ (m-chlorobenzoic acid), HCCl3/H+ (0.1 equiv. m-chlorobenzoic acid)
[9] = hccl3/h+ (p-nitrobenzoic acid), HCCl3/H+ (0.1 equiv. p-nitrobenzoic acid), 50° C.

## CN(C)Oc1nc(N(C)C)nc(N(C)C)n1 [O-HMM, 2,4-bis(dimethylamino)-6-[(dimethylamino)oxy]-1,3,5-triazine]
A-204 rhabdomysarcoma; 200 μg/ml
  inhibition of colony formation: Complete inhibition
A-204 rhabdomysarcoma; Homo sapiens, A204, 216 h, 10 ug/ml, read-out: Percent survival (number of colonies in test dishes to colonies in control dishes times 100)
  viability at 10 µg/mL: 99 ± 26%
A-204 rhabdomysarcoma; Homo sapiens, A204, 216 h, 20 ug/ml, read-out: Percent survival (number of colonies in test dishes to colonies in control dishes times 100)
  viability at 20 µg/mL: 87 ± 13%
A-204 rhabdomysarcoma; Homo sapiens, A204, 216 h, 40 ug/ml, read-out: Percent survival (number of colonies in test dishes to colonies in control dishes times 100)
  viability at 40 µg/mL: 76 ± 17%
A-204 rhabdomysarcoma; Homo sapiens, A204, 216 h, 60 ug/ml, read-out: Percent survival (number of colonies in test dishes to colonies in control dishes times 100)
  viability at 60 µg/mL: 48 ± 21%
A-204 rhabdomysarcoma; Homo sapiens, A204, 216 h, 80 ug/ml, read-out: Percent survival (number of colonies in test dishes to colonies in control dishes times 100)
  viability at 80 µg/mL: 20 ± 17%
A-204 rhabdomysarcoma; Homo sapiens, A204, 216 h, 100 ug/ml, read-out: Percent survival (number of colonies in test dishes to colonies in control dishes times 100)
  viability at 100 µg/mL: 4 ± 4%
A-204 rhabdomysarcoma; Homo sapiens, A204, 216 h, 120 ug/ml, read-out: Percent survival (number of colonies in test dishes to colonies in control dishes times 100)
  viability at 120 µg/mL: 1 ± 2%
A-204 rhabdomysarcoma; Homo sapiens, A204, 216 h, 200 ug/ml, read-out: Percent survival (number of colonies in test dishes to colonies in control dishes times 100)
  viability at 200 µg/mL: 0%
A-498 renal carcinoma; 200 μg/ml
  inhibition of colony formation: Complete inhibition
A-498 renal carcinoma; Homo sapiens, A498, 216 h, 10 ug/ml, read-out: Percent survival (number of colonies in test dishes to colonies in control dishes times 100)
  viability at 10 µg/mL: 93 ± 3%
A-498 renal carcinoma; Homo sapiens, A498, 216 h, 20 ug/ml, read-out: Percent survival (number of colonies in test dishes to colonies in control dishes times 100)
  viability at 20 µg/mL: 83 ± 7%
A-498 renal carcinoma; Homo sapiens, A498, 216 h, 40 ug/ml, read-out: Percent survival (number of colonies in test dishes to colonies in control dishes times 100)
  viability at 40 µg/mL: 67 ± 14%
A-498 renal carcinoma; Homo sapiens, A498, 216 h, 60 ug/ml, read-out: Percent survival (number of colonies in test dishes to colonies in control dishes times 100)
  viability at 60 µg/mL: 44 ± 23%
A-498 renal carcinoma; Homo sapiens, A498, 216 h, 80 ug/ml, read-out: Percent survival (number of colonies in test dishes to colonies in control dishes times 100)
  viability at 80 µg/mL: 24 ± 18%
A-498 renal carcinoma; Homo sapiens, A498, 216 h, 100 ug/ml, read-out: Percent survival (number of colonies in test dishes to colonies in control dishes times 100)
  viability at 100 µg/mL: 14 ± 9%
A-498 renal carcinoma; Homo sapiens, A498, 216 h, 120 ug/ml, read-out: Percent survival (number of colonies in test dishes to colonies in control dishes times 100)
  viability at 120 µg/mL: 5 ± 6%
A-498 renal carcinoma; Homo sapiens, A498, 216 h, 200 ug/ml, read-out: Percent survival (number of colonies in test dishes to colonies in control dishes times 100)
  viability at 200 µg/mL: 0%
A-101D melanoma; 200 μg/ml
  inhibition of colony formation: Complete inhibition
A-101D melanoma; Homo sapiens, A101D, 216 h, 10 ug/ml, read-out: Percent survival (number of colonies in test dishes to colonies in control dishes times 100)
  viability at 10 µg/mL: 95 ± 10%
A-101D melanoma; Homo sapiens, A101D, 216 h, 20 ug/ml, read-out: Percent survival (number of colonies in test dishes to colonies in control dishes times 100)
  viability at 20 µg/mL: 82 ± 9%
A-101D melanoma; Homo sapiens, A101D, 216 h, 40 ug/ml, read-out: Percent survival (number of colonies in test dishes to colonies in control dishes times 100)
  viability at 40 µg/mL: 50 ± 15%
A-101D melanoma; Homo sapiens, A101D, 216 h, 60 ug/ml, read-out: Percent survival (number of colonies in test dishes to colonies in control dishes times 100)
  viability at 60 µg/mL: 17 ± 16%
A-101D melanoma; Homo sapiens, A101D, 216 h, 80 ug/ml, read-out: Percent survival (number of colonies in test dishes to colonies in control dishes times 100)
  viability at 80 µg/mL: 1 ± 1%
A-101D melanoma; Homo sapiens, A101D, 216 h, 100 ug/ml, read-out: Percent survival (number of colonies in test dishes to colonies in control dishes times 100)
  viability at 100 µg/mL: 0%
A-101D melanoma; Homo sapiens, A101D, 216 h, 120 ug/ml, read-out: Percent survival (number of colonies in test dishes to colonies in control dishes times 100)
  viability at 120 µg/mL: 0%
A-101D melanoma; Homo sapiens, A101D, 216 h, 200 ug/ml, read-out: Percent survival (number of colonies in test dishes to colonies in control dishes times 100)
  viability at 200 µg/mL: 0%
A-549 lung carcinoma; 200 μg/ml
  inhibition of colony formation: Complete inhibition
A-549 lung carcinoma; Homo sapiens, A549, 216 h, 10 ug/ml, read-out: Percent survival (number of colonies in test dishes to colonies in control dishes times 100)
  viability at 10 µg/mL: 91 ± 6%
A-549 lung carcinoma; Homo sapiens, A549, 216 h, 20 ug/ml, read-out: Percent survival (number of colonies in test dishes to colonies in control dishes times 100)
  viability at 20 µg/mL: 94 ± 4%
A-549 lung carcinoma; Homo sapiens, A549, 216 h, 40 ug/ml, read-out: Percent survival (number of colonies in test dishes to colonies in control dishes times 100)
  viability at 40 µg/mL: 69 ± 11%
A-549 lung carcinoma; Homo sapiens, A549, 216 h, 60 ug/ml, read-out: Percent survival (number of colonies in test dishes to colonies in control dishes times 100)
  viability at 60 µg/mL: 9 ± 14%
A-549 lung carcinoma; Homo sapiens, A549, 216 h, 80 ug/ml, read-out: Percent survival (number of colonies in test dishes to colonies in control dishes times 100)
  viability at 80 µg/mL: 0%
A-549 lung carcinoma; Homo sapiens, A549, 216 h, 100 ug/ml, read-out: Percent survival (number of colonies in test dishes to colonies in control dishes times 100)
  viability at 100 µg/mL: 0%
A-549 lung carcinoma; Homo sapiens, A549, 216 h, 120 ug/ml, read-out: Percent survival (number of colonies in test dishes to colonies in control dishes times 100)
  viability at 120 µg/mL: 0%
A-549 lung carcinoma; Homo sapiens, A549, 216 h, 200 ug/ml, read-out: Percent survival (number of colonies in test dishes to colonies in control dishes times 100)
  viability at 200 µg/mL: 0%
[1]; pentane, organic solvent or mixture, read-out: solubility in lipid medium (pentane)
  solubility: 29 mg/mL (≈ 128 mM)
[1]; water, read-out: solubility in aqueous medium (water)
  solubility: 19 mg/mL (≈ 84 mM)
[2]; h2o/h+ (0.01 m hcl), 25° C.
  degraded at 4 h: 100%
  remaining at 4 h: 0%
[2]; [4]
  degraded at 4 h: 79%
  remaining at 4 h: 21%
[2]; [5]
  degraded at 4 h: 100%
  remaining at 4 h: 0%
[2]; 25° C.
  degraded at 24 h: 0%
  remaining at 24 h: 100%
[2]; 50° C.
  degraded at 24 h: 9%
  remaining at 24 h: 91%
[2]; hccl3, HCCl3, 25° C.
  degraded at 26 h: 3%
  remaining at 26 h: 97%
[2]; hccl3, HCCl3, 50° C.
  degraded at 26 h: 37%
  remaining at 26 h: 63%
[2]; hccl3, HCCl3
  degraded at 20 h: 100%
  remaining at 20 h: 0%
[2]; [6]
  degraded at 26 h: 66%
  remaining at 26 h: 34%
[2]; [7]
  degraded at 26 h: 97%
  remaining at 26 h: 3%
[2]; [8]
  degraded at 20 h: 100%
  remaining at 20 h: 0%
[2]; [9]
  degraded at 26 h: 100%
  remaining at 26 h: 0%
[2]; pentane
  degraded at 20 h: 100%
  remaining at 20 h: 0%
rats
  acute toxic effects: No acute toxic effects were observed
Male BDF1 mice
  onset of changes in the mouse's behavior after injection: < 1 min
Male BDF1 mice; 1000 mg/kg
  recovery of the fourth mouse: recovering completely
Male BDF1 mice; mouse
  time of recovery (dose dependence): dose-dependent time of recovery
  time until effects diminished and animal appeared normal: 3 to 5 h
Male BDF1 mice; mouse, 1000 mg/kg
  time to death: ≤ 3 min
Male BDF1 mice; mouse, 1000 mg/kg, 4 mice
  deaths: 3 of the 4
Male BDF1 mice; mouse, 60- and 120-day observation
  long-term effects (weight loss, hair loss, death rate vs control animals): no long-term effects
Male BDF1 mice; mouse, 500, 250, 100, 50 and 25 mg/kg
  recovery of the remaining mice in the other groups: recovered completely in a few hours
Male BDF1 mice; mouse, 1000-25 mg/kg
  toxic phenomenon (flaccid paralysis): dose dependent toxic phenomenon showing a decreasing degree of a flaccid paralysis with decreasing dose
Male BDF1 mice; mouse, inferred from rapid onset of toxic effect
  absorption: very rapid absorption
[3]
  activity compared with HMM in the human tumor colony formation test systems: consistently greater activity than HMM
